Here are results for six compounds from patent publication US9439884B2, “Methods for the treatment of immune disorders” (Beth Israel Deaconess Medical Center, Inc., priority 2011, dated 2016).

One test has as its target T1, TLR9 (Homo sapiens, UniProt Q9NR96).
T1 sequence (Q9NR96 26-1032): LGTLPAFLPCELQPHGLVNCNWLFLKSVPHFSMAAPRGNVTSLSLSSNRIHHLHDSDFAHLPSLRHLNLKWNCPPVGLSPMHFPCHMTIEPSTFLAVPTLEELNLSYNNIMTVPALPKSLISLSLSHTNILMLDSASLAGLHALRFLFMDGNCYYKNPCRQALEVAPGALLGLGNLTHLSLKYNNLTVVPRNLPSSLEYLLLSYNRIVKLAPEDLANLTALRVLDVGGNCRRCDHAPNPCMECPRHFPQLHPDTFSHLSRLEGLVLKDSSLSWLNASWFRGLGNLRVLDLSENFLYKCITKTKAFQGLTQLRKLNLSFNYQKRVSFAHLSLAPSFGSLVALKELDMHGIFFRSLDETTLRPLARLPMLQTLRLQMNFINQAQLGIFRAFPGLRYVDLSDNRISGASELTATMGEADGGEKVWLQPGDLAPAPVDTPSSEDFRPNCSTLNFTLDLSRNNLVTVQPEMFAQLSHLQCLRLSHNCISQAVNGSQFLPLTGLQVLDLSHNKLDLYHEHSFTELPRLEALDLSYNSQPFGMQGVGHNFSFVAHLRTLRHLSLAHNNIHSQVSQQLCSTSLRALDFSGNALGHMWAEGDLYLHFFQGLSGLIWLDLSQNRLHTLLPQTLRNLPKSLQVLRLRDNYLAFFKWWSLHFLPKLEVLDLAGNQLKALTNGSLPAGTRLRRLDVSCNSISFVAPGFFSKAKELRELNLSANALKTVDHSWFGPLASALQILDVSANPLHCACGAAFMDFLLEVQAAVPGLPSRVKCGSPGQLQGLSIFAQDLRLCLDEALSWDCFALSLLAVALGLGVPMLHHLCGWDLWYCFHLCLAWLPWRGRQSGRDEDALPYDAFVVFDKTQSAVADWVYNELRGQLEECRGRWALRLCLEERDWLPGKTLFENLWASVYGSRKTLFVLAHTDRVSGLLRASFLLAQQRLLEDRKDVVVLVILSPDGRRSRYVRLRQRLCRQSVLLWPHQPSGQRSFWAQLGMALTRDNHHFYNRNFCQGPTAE
The note with it: cited from earlier work.

Test [1] deals with T2, Pin1 (Homo sapiens, UniProt Q13526). Briefly: 15N-1H Nzz exchange spectroscopy of Pin1-catalyzed cis-trans isomerization. In kind it is biochemical. Particulars: pS173P peptide bond; peptide 1 mM, Pin1 17 μM. The text has this: Because uncatalyzed cis-trans isomerization is a generally slow process (time constant minutes), the equilibrium between cis and trans isomers yields two distinct peaks for residues (such as A175) whose chemical environment differs in the two isomer states. […] The dependence of peak intensities on Nzz mixing time yields the cis-trans exchange rate. […] Based on peak intensities in the absence of Pin1, the pS173P trans:cis ratio is 85:15.
T2 sequence (Q13526 whole entry): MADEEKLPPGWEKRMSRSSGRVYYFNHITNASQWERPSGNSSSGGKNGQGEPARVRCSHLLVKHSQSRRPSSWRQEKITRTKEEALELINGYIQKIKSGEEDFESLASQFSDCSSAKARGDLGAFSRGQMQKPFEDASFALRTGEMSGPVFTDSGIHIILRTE

A further test has as its target T3, Pin1 WW domain (Homo sapiens, UniProt Q13526).
T3 construct: monitor the changes in the ^15N-WW domain induced by titration with phosphopeptide ligands
Briefly: 2D NMR (15N-1H HSQC) titration of 15N-WW domain with IRAK1 phosphopeptides. It is filed as binding. The note with it: chemical shift change of 15N-WW domain as a function of peptide concentration; read-out: dissociation constants (KD). The source says:
To measure the Pin1 interaction with each of the implicated pSer-Pro motifs in IRAK1, we employed two-dimensional (2D) NMR spectroscopy to monitor the changes in the ^15N-WW domain induced by titration with phosphopeptide ligands. In a 2d ^15N-^1H HSQC spectrum of a protein (FIG. 3a), each backbone NH group is represented by a peak, whose position reflects the chemical environment of that NH bond. Ligand binding to the protein is detected by changes in peak positions (fast exchange) or by the appearance of new peaks (slow exchange) as ligand is added. WW binding at each distinct IRAK1 site was measured using phosphopeptides containing residues 126-136 (pSer131-P132), 140-150 ([…]), and 157-180 (pSer173-P174) of IRAK1.

The test system of the next test is T47D. Briefly: Cell growth inhibition, T47D. In kind it is cell-based. The note with it: breast cancer cell line T47D.
The next test has as its system pDCs. Briefly: Cytokine production of pDCs upon TLR9 activation by CpG. In kind it is cell-based.
A further test relates to SKBR3. The test is described as follows: Cell growth inhibition, SKBR3. It is filed as cell-based. Particulars: breast cancer cell line SKBR3.
The test system of another test is NZBWF1 mice. The test is described as follows: Proteinuria in lupus-prone NZBWF1 mice (Bio-Rad assay). It is filed as in vivo. Particulars: female NZBWF1 mice, controlled release pellets, 3.5 months, vs placebo. How it is done: Female lupus-prone NZBWF1 mice were treated with placebo or ATRA for 3.5 months and proteinuria was evaluated by Bio-Rad assay.
Our objective here was to determine if the Pin1 inhibitor we have discovered, ATRA, offer a treatment benefit in preclinical models of SLE. To this end we have been treating NZBWF1 female mice for 3.5 months with controlled release ATRA pellets, which have been well established pharmacologically and which offer the advantage ease of delivery, reduced stress to subjects and controlled drug release. Each cohort has been pre-bleed and urine collected before the start of drug treatment. Subsequently, we have collected serum and urine samples monthly for evaluation of disease markers such as autoantibodies and proteinuria.

The subject of a further test is cancer cells. Briefly: Pin1-dependent cancer cell growth. It is filed as cell-based. The source says:
(§1) In this regard, recently, we identified specific and potent Pin1 catalytic peptidic inhibitors and used them to establish a robust and sensitive FP-based HTS to screen approved drugs and NIH Chemical and Genomics Center, which led us to successfully identify all trans retinoic acid (ATRA) and four other Pin1 inhibitors active in cells for further optimization including Cpd4 (FIG. 27A).

A further test relates to MCF-10A. The test is described as follows: Cell growth, normal breast cells MCF-10A. It is filed as cell-based.
Test [2] has as its target T2, Pin1. The test is described as follows: Pin1 PPIase (catalytic activity) assay in vitro. It is filed as biochemical.
Source text: as §1
(§2) We developed a fluorescence polarization (FP)-based HTS using fluorescence labeled Pin1 peptidic inhibitor, pTide to identify Pin1 inhibitors. Our screening of selected compounds at the Harvard ICCB-L libraries identified the strongest hit to be cis-RA according to the Z-score (FIG. 31A). To confirm that RAs target Pin1, we examined cis-RA and trans-RA in vitro and in cells. […] Cellular Pin1 activity was also reflected by cyclin D1 levels (FIG. 31D), a known Pin1 biomarker.

The subject of the next test is BM-derived eosinophils. Briefly: IL-6 ELISA in IL-33-stimulated BM-derived eosinophils. Particulars: 100 ng/ml IL-33. It is filed as cell-based. In general terms: In an ELISA, binding on a coated surface is turned into a signal by an enzyme label.
The subject of a further test is Pin1 KO MEFs. Briefly: Anti-proliferative effect in Pin1 KO MEFs with or without Pin1 re-expression. It is filed as cell-based, mouse.
In test [3] the target is T2, Pin1. The test is described as follows: Co-crystal structure of Pin1 and ATRA. In kind it is binding.
For another test, the system named is lupus prone mouse models. The note with it: some lupus prone mouse models; cited from earlier work.
The target in test [4] is T2, Pin1. The test is described as follows: Pin1 protein/mRNA levels and turnover in cells. In kind it is cell-based.
Source text: as §2

The target of test [5] is T4, Pin1 (Mus musculus, UniProt Q9QUR7).
T4 construct: endogenous in cells; host or cells: bone-marrow-derived eosinophils
T4 sequence (Q9QUR7 whole entry): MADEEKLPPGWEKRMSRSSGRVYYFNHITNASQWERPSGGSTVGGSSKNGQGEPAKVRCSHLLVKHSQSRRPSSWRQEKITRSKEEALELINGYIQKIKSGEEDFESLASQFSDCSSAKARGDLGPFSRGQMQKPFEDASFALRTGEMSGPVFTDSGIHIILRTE
Briefly: Pin1 western and PPIase assay in IL-33-stimulated BM-derived eosinophils. In kind it is cell-based. Particulars: 100 ng/ml IL-33.

In test [6] the target is T2, Pin1. The test is described as follows: Fluorescence polarization (FP)-based HTS / displacement of labeled Pin1 peptidic inhibitor pTide. In kind it is binding.
Source text: as §1, §2

The next test has as its system PP2A. Briefly: Pin1 dephosphorylation in human PBMCs after TLR9 activation by CpG. In kind it is cell-based. The note with it: human PBMCs pretreated with 5 nM. The source says: We have shown that in SLE T cells the message, protein and activity of PP2Ac is increased and is involved in their abnormal function. First, PP2Ac dephosphorylates pCREB and accounts for the decreased IL-2 production. Second, PP2Ac dephosphorylates the transcription factor Elf1 and decreases its ability to bind to the promoters of CD3zeta and FcRgamma genes causing suppression of the first and derepression of the second with significant repercussions in the composition of the CD3 complex in SLE T cells. Third, PP2Ac dephosphorylates (and activates) SP1, which binds to the promoter of IL-17A and promotes its expression. […] Moreover, Pin1 also was dephosphorylated in T cells isolated from CD2:PP2A transgenic mice that overexpresses PP2Ac in T cells developed in Dr. Tsokos laboratory, but not wild-type littermates (FIG. 25E). Therefore, it is reasonable to predict that increased PP2Ac activity may contribute to the dephosphorylation and activation of Pin1 in SLE. Alternatively, because calcineurin (CaN) can also dephosphorylate Pin1 in vitro (FIG. 25) and CaN inhibitors may have a place in the treatment of SLE, we will consider it as a viable alternative to PP2Ac.

“Also recorded” adds a separate entry of the source. Read-outs that look alike come from different tables or passages of the source. *1 amine or outer side, *2 acyl side, *3 side chain or, on linkers, in order; H or OH if unused. Where a SMILES comes first, the peptide text is derived from it. Where no end group is shown, it is not given here. [ ]: non-standard residue; d: D form. 15N‑Ala = Ala with single 15N label, C[C@H]([15NH][*:1])C(=O)[*:2]; pS = N[C@@H](COP(=O)(O)O)C(=O)O

T3 sequence (Q13526 5-39 limits assumed): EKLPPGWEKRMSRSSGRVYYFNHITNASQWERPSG

Take `CCN(CCO)CCCC(C)Nc1ccnc2cc(Cl)ccc12` (stereo not drawn) [hydroxychloroquine]: at TLR9, the “stimulation of TLR9” value is listed as “inhibits stimulation of TLR9”.
Regarding “^15N-Ala175-UD157-180: IRAK1 UD157-180 phosphopeptide with a single 15N label at Ala175 (ELGLVPSPASLWPPPP[pS]P[15N‑Ala]PSSTK; not fully specified; also: other phosphorylation sites not given here; UniProt P51617 157-180, looked up, fragment)”, the “Pin1-catalyzed isomerization rate kex” value with Pin1 [1] is 27 s⁻¹.
As a reminder, the Kd is the concentration at which binding is half-saturated. With `CC(C)C[C@H](NC(=O)[C@H](CCCCN)NC(=O)[C@H](CCCNC(=N)N)NC(=O)[C@@H]1CCCN1C(=O)[C@H](COP(=O)(O)O)NC(=O)[C@H](Cc1c[nH]c2ccccc12)NC(=O)[C@H](C)NC(=O)[C@H](CCC(=O)O)NC(=O)[C@H](C)NC(=O)[C@@H](N)CCC(=O)O)C(=O)N1CCC[C@H]1C(=O)O` [126-136 (pSer131-P132)] (H-EAEAW[pS]PRKLP-OH), the Kd on Pin1 WW domain was found to be 220 ± 15 µM.
As for `CC1=C(/C=C/C(C)=C/C=C/C(C)=C/C(=O)O)C(C)(C)CCC1` [ATRA, all trans retinoic acid], the “inhibition of cell growth” value with T47D is “inhibiting cell growth”. Besides, in the test with pDCs, the “production of IL6” value was “suppressed”, the “production of IL12” value was “suppressed” and the “production of TNF-α” value is “suppressed”. For the same compound, the “inhibition of cell growth” value with SKBR3 is “inhibiting cell growth”. Moreover, in the test on NZBWF1 mice, the proteinuria entry is recorded as “significantly reduced”. Moreover, in the test with cancer cells, the “inhibition of Pin1-dependent cancer cell growth” value is recorded as “inhibited Pin1-dependent cancer cell growth”. Also, the “effect on normal breast cells” value with MCF-10A is “without any effects”. In addition, the “inhibition of Pin1 catalytic (PPIase) activity” value (shortened to “inhibition of Pin1 catalytic”) against Pin1 [2] is given as “inhibited its catalytic activity”. In addition, at Pin1 [2] (listed as trans-RA), the “inhibition of Pin1 catalytic” value is on record as “Dose-dependant Pin1 inhibition; also recorded: inhibiting Pin1 PPIase assays”. In the test with BM-derived eosinophils, the IL-6 secretion result is “inhibited”. For the same compound, in the test with Pin1 KO MEFs (Pin1 KO MEFs), the “sensitivity to anti-proliferative effects” value was “much more resistant”. Also, the drug sensitivity entry with Pin1 KO MEFs (Pin1 KO MEFs with stable re-expression of Pin1 (not its inactive mutant)) is on record as “fully restored”. Besides, the “binding site in co-crystal structure” value on Pin1 [3] is on record as “bound to Pin1 active site”. Moreover, the SLE-related phenotypes result in the test on lupus prone mouse models is “suppress SLE-related phenotypes”. The Pin1 levels result on Pin1 [4] (breast cancer cell lines SKBR3 and T47D) is given as “reducing Pin1 levels”. The “degradation of Pin1 and its substrate D1” value on Pin1 [4] (cancer cells) was “induced the degradation”. Besides, at Pin1 [5], the “Pin1 activation (PPIase assay)” value is reported as “inhibited Pin1 activation” and the “Pin1 degradation (Pin1 western)” value was “induced Pin1 degradation”. The “Pin1 inhibition in FP assays” value at Pin1 [6] (compared with cis-RA) is “more potent Pin1 inhibition than cis-RA”. In addition, the “competition with Pin1 catalytic peptidic inhibitors for binding to the Pin1 active site” value at Pin1 [6] (preliminary results) is “effectively competed”.
For `CC1=C(/C=C/C(C)=C/C=C/C(C)=C\C(=O)O)C(C)(C)CCC1` [cis-RA, 13-cis retinoic acid], the “inhibition of Pin1 catalytic” value at Pin1 [2] is listed as “Dose-dependant Pin1 inhibition”. Moreover, the “hit ranking according to the Z-score” value at Pin1 [6] (screening of Harvard ICCB-L libraries) is recorded as “strongest hit”.
With `C=C1[C@@H](O)[C@@H]2O[C@]3(CC[C@H](/C=C/[C@@H](C)[C@@H]4CC(C)=C[C@@]5(O[C@H](C[C@@](C)(O)C(=O)O)CC[C@H]5O)O4)O3)CC[C@H]2O[C@@H]1[C@@H](O)C[C@H](C)[C@H]1O[C@@]2(CCCCO2)CC[C@H]1C` [okadaic acid], the “Pin1 dephosphorylation after CpG” value in the test on PP2A is given as “reversed”.
